Results taken from patent publication US20240051937A1, “ISOINDOLINONE AMIDE COMPOUNDS USEFUL TO TREAT DISEASES ASSOCIATED WITH GSPT1” (Monte Rosa Therapeutics, Inc., priority 2021, published 2024).
Like-named read-outs stand apart in the source and are kept apart here.

How the values were obtained:
[1] = target: T1, Full length wild-type cereblon CRBN (Homo sapiens, UniProt Q96SW2); test: Fluorescence polarization (FP) assay indicating cereblon binding
T1 construct: Full length wild-type cereblon CRBN (80.0 nM, 10 μL) was incubated in assay buffer
Text: Protocol for Fluorescent Polarization Assay
Compound activity was monitored in a fluorescence polarization (FP) homogeneous assay using 1-[5-({2-[2-(2-{[2-(2,6-dioxopiperidin-3-yl)-1,3-dioxo-2,3-dihydro-1H-isoindol-4-yl]oxy}acetamido)ethoxy]ethyl}carbamoyl)pentyl]-3,3-dimethyl-2-[(1E,3E)-5-[(2E)-1,3,3-trimethyl-5-sulfo-2,3-dihydro-1H-indol-2-ylidene]penta-1,3-dien-1-yl]-3H-indol-1-ium-5-sulfonate as a fluorescent probe. Unless otherwise stated, all reagents were purchased from Sigma Aldrich. Enzymatic reactions were conducted in Perkin-Elmer Black 384 well ProxiPlate Plus (catalogue no. 6008269) in 10 μL total volume. Full length wild-type cereblon CRBN (80.0 nM, 10 μL) was incubated in assay buffer containing 20 mM HEPES (pH 8.0), […], 0.5 mM TCEP and 0.05% Tween 20 in the presence or absence of compound (300 nL). Inhibitors were stored as 10 mM DMSO stocks in an inert environment (low humidity, dark, low oxygen, room temperature) using the Storage Pod System. Compounds and DMSO were dispensed using the Echo E5XX (Labcyte Inc. USA) to give concentrations from 300 to 0.937 or 3000 to 9.3 nM in a 12 data point curve. […] Following incubation at room temperature for 30 min, the assay was initiated by dispensing the probe to a final concentration of 5 nM (2.5 nL of a 20 μM stock) using the Echo E5XX. FP was measured after a period of 12 hours using a Pherastar plate reader (BMG Labtech, Germany) exciting at 590 nm and measuring the amount of parallel and perpendicular light at 675 nm. The FP signal was subsequently normalized to the no-compound control (i.e., DMSO). Analysis and IC50 values were derived using Dotmatics (Dotmatics UK) software.

GSPT1 = GSPT1 (Homo sapiens, UniProt P15170+Q96SW2); test: Immunofluorescence assay for GSPT1 degradation in CAL-Si cells; assay type: cell-based; design: CAL-Si cells were purchased from DSMZ (cat. Number ACC302); host or cells: CAL-Si (CAL-51) cells; conditions: 6 hours treatment
Description: The representative compounds were tested in an immunofluorescence assay for their activity to bind to degrade GSPT1. CAL-Si cells were purchased from DSMZ (cat. Number ACC302), sub-cultured in 90% Dulbecco's MEM (4.5 g/L glucose, Gibco 11965)+10% […] inactivated FBS (BioConcept, 2-01F136I) and incubated at 37° C., 5% CO2. For the assay, imaging microtiterplate Cell Carrier 96 Ultra (Perkin Elmer 6055302) were pre-coated with Fibronectin (Sigma F085, 30 μl at 0.2 μg/ml) in PBS (100 μl, Gibco 14190) for 45 min at room temperature, rinsed with PBS and CAL-Si cells (30K cells/well) were plated and let to adhere overnight. Cells were treated with compounds typically using a serial dilution ranging from 30 μM to 0.1 nM for 6 hours. Compounds were stored at 10 mM DMSO stocks. Vehicle (DMSO), positive (CC-885, 10 μM) and rescue controls (positive control plus 0.2 μM bortezomib) were also included at this stage. Cells were subsequently rinsed with PBS and fixed in 10% Formalin solution (50 μl, Sigma HT5011)) for 20 mins at room temperature. Following three consecutive PBS washes (100 μl), cells were permeabilized in 0.1% Triton X-100 in PBS (Sigma 93443, 50 μl) for 15 mins at room temperature. Following three further PBS washes, […] blocking buffer (1% BSA, Sigma A4503, in PBS) was added for 45 min for signal-to-noise reduction.
Primary antibody (human GSPT1, Sigma HPA052488) was diluted in blocking buffer (dil.1/300, 35 μl/well) and incubated with the cells overnight at 4° C. After three PBS washes, Alexa-fluor 488 coupled secondary antibodies (Invitrogen, A32731, dil.1/1000), Alexa-fluor 647-Phalloidin (Invitrogen, A22287, dil.1/200) and DAPI (Thermo, #62248, dil.1/1000) were diluted in blocking buffer and incubated with the samples for 2 hours at room temperature. After three final PBS washes, samples were conserved in […] PBS in the dark, until measurement. Image acquisition was performed on the Operetta High-Content Imager (Perkin-Elmer). Fluorescence intensity of Alexa-Fluor 488 (GSPT1), Alexa-Fluor 647 (Actin) and DAPI (Nucleus) were measured. For the determination of GSPT1 DC50 values, a custom algorithm implemented in the PerkinElmer image analysis software Harmony-Acapella® was developed. After user-defined setting of adjustment parameters, the analysis was run identically without human intervention for all image fields. DAPI staining of the nuclei was used to determine the location of cells using standard nuclei detection modules. Segmentation artifacts were removed by threshold-based filters for area, roundness and intensity. The outline of the cells was determined analogously from the sum of the normalized, smoothed DAPI and Actin channel, starting from each nucleus.
The Alexa-Fluor 488 (GSPT1) signal intensity in each cell was finally measured, in order to obtain a Mean intensity per cell. GSPT1 degradation (DC50) was calculated after normalization to controls and data import in CDD vault Database, using non-linear regression.

[2] = cereblon binding, CRBN 80.0 nM, probe 5 nM, FP read after 12 hours, read-out: rFP IC50
[3] = read-out: Code: activity for GSPT1 degradation (DC50)
[4] = fluorescence polarization assay, read-out: IC50 value (cereblon binding)
[5] = GSPT1 degradation, read-out: DC50

T1 sequence (Q96SW2 whole entry): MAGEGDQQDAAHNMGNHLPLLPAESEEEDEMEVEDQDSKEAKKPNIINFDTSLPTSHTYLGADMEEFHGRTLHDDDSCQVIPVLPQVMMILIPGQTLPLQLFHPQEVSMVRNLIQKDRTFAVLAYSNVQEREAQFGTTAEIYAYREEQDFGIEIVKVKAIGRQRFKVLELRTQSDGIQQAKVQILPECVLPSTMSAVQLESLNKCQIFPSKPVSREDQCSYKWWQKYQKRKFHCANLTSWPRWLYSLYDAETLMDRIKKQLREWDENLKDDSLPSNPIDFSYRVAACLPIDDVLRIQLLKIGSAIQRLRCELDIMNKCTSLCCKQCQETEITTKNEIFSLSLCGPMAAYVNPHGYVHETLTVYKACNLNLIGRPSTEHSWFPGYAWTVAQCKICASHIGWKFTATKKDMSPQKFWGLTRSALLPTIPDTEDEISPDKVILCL
Sequence of GSPT1 (P15170 whole entry): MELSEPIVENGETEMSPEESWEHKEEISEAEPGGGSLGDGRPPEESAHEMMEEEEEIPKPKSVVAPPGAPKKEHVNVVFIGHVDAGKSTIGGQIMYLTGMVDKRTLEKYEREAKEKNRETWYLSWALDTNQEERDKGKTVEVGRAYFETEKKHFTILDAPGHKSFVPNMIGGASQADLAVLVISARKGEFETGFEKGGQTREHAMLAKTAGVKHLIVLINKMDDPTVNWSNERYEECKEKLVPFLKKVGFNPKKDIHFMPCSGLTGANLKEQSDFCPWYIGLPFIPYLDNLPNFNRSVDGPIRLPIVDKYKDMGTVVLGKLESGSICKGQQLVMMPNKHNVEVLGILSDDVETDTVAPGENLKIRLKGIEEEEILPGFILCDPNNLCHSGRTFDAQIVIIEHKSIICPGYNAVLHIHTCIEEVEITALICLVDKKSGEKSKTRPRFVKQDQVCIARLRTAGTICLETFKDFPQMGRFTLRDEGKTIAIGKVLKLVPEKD
Sequence of GSPT1 (Q96SW2 whole entry): as the sequence (Q96SW2 whole entry) above
Sequence of GSPT1 (Q16531 whole entry partner): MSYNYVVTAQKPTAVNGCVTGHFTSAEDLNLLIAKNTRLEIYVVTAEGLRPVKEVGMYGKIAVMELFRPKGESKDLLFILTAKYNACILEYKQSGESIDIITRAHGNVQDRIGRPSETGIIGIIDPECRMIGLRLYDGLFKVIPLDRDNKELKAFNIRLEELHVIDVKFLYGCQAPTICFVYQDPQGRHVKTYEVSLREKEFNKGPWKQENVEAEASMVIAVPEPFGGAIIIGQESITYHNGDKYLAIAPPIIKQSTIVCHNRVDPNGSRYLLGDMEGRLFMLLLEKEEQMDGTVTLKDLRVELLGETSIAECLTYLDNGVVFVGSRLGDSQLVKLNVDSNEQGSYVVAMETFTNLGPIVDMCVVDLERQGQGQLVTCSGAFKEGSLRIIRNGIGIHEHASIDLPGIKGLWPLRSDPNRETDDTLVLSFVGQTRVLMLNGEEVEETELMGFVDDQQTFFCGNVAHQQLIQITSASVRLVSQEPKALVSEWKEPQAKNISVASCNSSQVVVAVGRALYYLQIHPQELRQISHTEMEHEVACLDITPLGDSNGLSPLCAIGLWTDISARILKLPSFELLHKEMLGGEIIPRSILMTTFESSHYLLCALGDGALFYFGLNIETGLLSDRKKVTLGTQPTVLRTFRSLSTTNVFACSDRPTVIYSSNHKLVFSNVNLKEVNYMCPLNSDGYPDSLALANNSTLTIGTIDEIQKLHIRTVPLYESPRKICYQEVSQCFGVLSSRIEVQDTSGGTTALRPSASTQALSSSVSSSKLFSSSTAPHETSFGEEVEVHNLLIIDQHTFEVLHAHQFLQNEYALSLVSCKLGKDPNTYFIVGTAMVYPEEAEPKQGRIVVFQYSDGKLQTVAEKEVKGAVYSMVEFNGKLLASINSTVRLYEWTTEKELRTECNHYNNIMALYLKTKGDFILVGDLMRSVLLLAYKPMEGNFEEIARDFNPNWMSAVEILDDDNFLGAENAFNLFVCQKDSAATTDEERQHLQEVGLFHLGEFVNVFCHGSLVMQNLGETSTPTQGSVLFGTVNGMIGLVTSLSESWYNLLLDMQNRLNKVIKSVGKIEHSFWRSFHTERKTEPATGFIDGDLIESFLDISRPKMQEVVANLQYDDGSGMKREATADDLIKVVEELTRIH

| SMILES | IC50 [1, 2] [nM] | DC50 (GSPT1; [3]) [nM] | IC50 [1, 4] [nM] | DC50 (GSPT1; [5]) [nM] |
| --- | --- | --- | --- | --- |
| CC(C)(C)c1ccc(NC(=O)CCc2ccc3c(c2)C(=O)N(C2CCC(=O)NC2=O)C3)cn1 (stereo not drawn) [Compound 41] | 1100 to 1700 | ≤ 30 | – | 26 |
| O=C1CCC(N2Cc3ccc(CCC(=O)Nc4cc(Cl)cc(OC(F)F)c4)cc3C2=O)C(=O)N1 (stereo not drawn) [Compound 23] | > 1700 | ≤ 30 | – | 27 |
| Cc1cc(NC(=O)CCc2ccc3c(c2)C(=O)N(C2CCC(=O)NC2=O)C3)cc(C)n1 (stereo not drawn) [Compound 52] | > 1700 | > 300 | – | – |
| O=C1CCC(N2Cc3ccc(CCC(=O)Nc4cnc5c(c4)COCC5)cc3C2=O)C(=O)N1 (stereo not drawn) [Compound 48] | 1100 to 1700 | > 300 | – | – |
| Cc1ccc(NC(=O)CCc2ccc3c(c2)C(=O)N(C2CCC(=O)NC2=O)C3)cc1OC(F)F (stereo not drawn) [Compound 29] | 1100 to 1700 | ≤ 30 | – | 6 |
| O=C1CCC(N2Cc3ccc(CCC(=O)Nc4ccc(F)c(OC(F)F)c4)cc3C2=O)C(=O)N1 (stereo not drawn) [Compound 30] | 500 to 1100 | 30 to 300 | < 1100 | – |
| O=C1CCC(N2Cc3ccc(CCC(=O)Nc4cnc5c(c4)CCC5)cc3C2=O)C(=O)N1 (stereo not drawn) [Compound 49] | 1100 to 1700 | > 300 | – | – |
| O=C1CCC(N2Cc3ccc(CCC(=O)Nc4ccc(N5CCCCC5)nc4)cc3C2=O)C(=O)N1 (stereo not drawn) [Compound 20] | 500 to 1100 | 30 to 300 | < 1100 | – |
| CC(C)CCNC(=O)CCc1ccc2c(c1)C(=O)N(C1CCC(=O)NC1=O)C2 (stereo not drawn) [Compound 6] | > 1700 | > 300 | – | – |
| COc1cc(NC(=O)CCc2ccc3c(c2)C(=O)N(C2CCC(=O)NC2=O)C3)cnc1C (stereo not drawn) [Compound 36] | 1100 to 1700 | > 300 | – | – |
| CCc1cc(NC(=O)CCc2ccc3c(c2)C(=O)N(C2CCC(=O)NC2=O)C3)cc(Cl)c1C (stereo not drawn) [Compound 43] | 1100 to 1700 | ≤ 30 | – | 26 |
| CN1CCC(COc2cc(Cl)cc(NC(=O)CCc3ccc4c(c3)C(=O)N(C3CCC(=O)NC3=O)C4)c2)C1 (stereo not drawn) [Compound 37] | 500 to 1100 | > 300 | < 1100 | – |
| O=C1CCC(N2Cc3ccc(CCC(=O)Nc4ccc5c(c4)OCC5)cc3C2=O)C(=O)N1 (stereo not drawn) [Compound 26] | 500 to 1100 | > 300 | < 1100 | – |
| O=C1CCC(N2Cc3ccc(CCC(=O)N4CCCCC4)cc3C2=O)C(=O)N1 (stereo not drawn) [Compound 13] | > 1700 | > 300 | – | – |
| O=C1CCC(N2Cc3ccc(CCC(=O)Nc4cc(CN5CCOCC5)cc(OC(F)F)c4)cc3C2=O)C(=O)N1 (stereo not drawn) [Compound 66] | > 1700 | 30 to 300 | – | – |
| Cc1c(CN2CCOCC2)cc(NC(=O)CCc2ccc3c(c2)C(=O)N(C2CCC(=O)NC2=O)C3)cc1OC(F)(F)F (stereo not drawn) [Compound 53] | 500 to 1100 | ≤ 30 | < 1100 | 22 |
| O=C1CCC(N2Cc3ccc(CCC(=O)Nc4cc(Cl)cc(OC5CCNC5)c4)cc3C2=O)C(=O)N1 (stereo not drawn) [Compound 19] | 500 to 1100 | > 300 | < 1100 | – |
| O=C1CCC(N2Cc3ccc(CCC(=O)Nc4cc(F)cc(OC(F)(F)F)c4)cc3C2=O)C(=O)N1 (stereo not drawn) [Compound 56] | > 1700 | 30 to 300 | – | – |

Other lines, results leading:

| IC50 [1, 2] [nM] | DC50 (GSPT1; [3]) [nM] | IC50 [1, 4] [nM] | DC50 (GSPT1; [5]) [nM] | SMILES |
| --- | --- | --- | --- | --- |
| 500 to 1100 | > 300 | – | – | Cc1ccc(NC(=O)COc2ccc3c(c2)C(=O)N(C2CCC(=O)NC2=O)C3)cc1Cl (stereo not drawn) [Compound 69, N-(3-chloro-4-methylphenyl)-2-((2-(2,6-dioxopiperidin-3-yl)-3-oxoisoindolin-5-yl)oxy)acetamide] |
| 500 to 1100 | 30 to 300 | < 1100 | – | O=C1CCC(N2Cc3ccc(CCC(=O)Nc4ccc(F)c(Cl)c4)cc3C2=O)C(=O)N1 (stereo not drawn) [Compound 8] |
| ≤ 500 | > 300 | < 1100 | – | COc1cc(Cl)ccc1NC(=O)CCc1ccc2c(c1)C(=O)N(C1CCC(=O)NC1=O)C2 (stereo not drawn) [Compound 16] |
| ≤ 500 | 30 to 300 | < 1100 | – | CC(F)(F)c1ccc(NC(=O)CCc2ccc3c(c2)C(=O)N(C2CCC(=O)NC2=O)C3)cc1 (stereo not drawn) [Compound 63] |
| 500 to 1100 | > 300 | < 1100 | – | O=C1CCC(N2Cc3ccc(CCC(=O)Nc4cc(Cl)cc(OCC5CCNC5)c4)cc3C2=O)C(=O)N1 (stereo not drawn) [Compound 25] |
| ≤ 500 | ≤ 30 | < 1100 | 13 | O=C1CCC(N2Cc3ccc(CCC(=O)Nc4ccc(-c5ccccc5)nc4)cc3C2=O)C(=O)N1 (stereo not drawn) [Compound 34] |
| 500 to 1100 | > 300 | < 1100 | – | COc1ccc(Cl)cc1NC(=O)CCc1ccc2c(c1)C(=O)N(C1CCC(=O)NC1=O)C2 (stereo not drawn) [Compound 14] |
| ≤ 500 | > 300 | < 1100 | – | Cc1c(Cl)cc(NC(=O)CCc2ccc3c(c2)C(=O)N(C2CCC(=O)NC2=O)C3)cc1OCC1CCN(C)C1 (stereo not drawn) [Compound 61] |
| 500 to 1100 | 30 to 300 | < 1100 | – | O=C1CCC(N2Cc3ccc(CCC(=O)Nc4cc(F)cc(OC(F)F)c4)cc3C2=O)C(=O)N1 (stereo not drawn) [Compound 28] |
| ≤ 500 | > 300 | < 1100 | – | Cc1c(Cl)cc(NC(=O)CCc2ccc3c(c2)C(=O)N(C2CCC(=O)NC2=O)C3)cc1OCC1CCNC1 (stereo not drawn) [Compound 51] |
| 500 to 1100 | > 300 | < 1100 | – | CCc1cc(NC(=O)CCc2ccc3c(c2)C(=O)N(C2CCC(=O)NC2=O)C3)ccn1 (stereo not drawn) [Compound 54] |
| ≤ 500 | > 300 | – | – | Cc1c(Cl)cc(NC(=O)CNc2ccc3c(c2)C(=O)N(C2CCC(=O)NC2=O)C3)cc1CN1CCOCC1 (stereo not drawn) [Compound 67, N-(3-chloro-4-methyl-5-(morpholinomethyl)phenyl)-2-((2-(2,6-dioxopiperidin-3-yl)-3-oxoisoindolin-5-yl)amino)acetamide] |
| ≤ 500 | 30 to 300 | < 1100 | – | Cc1ncc(NC(=O)CCc2ccc3c(c2)C(=O)N(C2CCC(=O)NC2=O)C3)cc1Cl (stereo not drawn) [Compound 3] |
| ≤ 500 | > 300 | – | – | Cc1c(Cl)cc(NC(=O)COc2ccc3c(c2)C(=O)N(C2CCC(=O)NC2=O)C3)cc1CN1CCOCC1 (stereo not drawn) [Compound 68, N-(3-chloro-4-methyl-5-(morpholinomethyl)phenyl)-2-((2-(2,6-dioxopiperidin-3-yl)-3-oxoisoindolin-5-yl)oxy)acetamide] |
| ≤ 500 | 30 to 300 | < 1100 | – | Cc1c(Cl)cc(NC(=O)CCc2ccc3c(c2)C(=O)N(C2CCC(=O)NC2=O)C3)cc1OC1CCN(C)C1 (stereo not drawn) [Compound 50] |
